This passage reports IC50, inhibition and Activity results from ChEMBL document CHEMBL5050855, “Mettl16 inhibitors and uses thereof” (2021).

Test [1] concerns U-937. In words: Antiproliferative activity against human U-937 cells after 72 hrs by MTT assay. The test is classed as functional, cell-based. As to conditions: U-937, 72 h. For orientation: Tetrazolium dyes change colour on reduction, which living cells bring about.
The nature of test [2]: Antiproliferative activity against human MA9.3ITD cells after 72 hrs by MTT assay. The test is classed as functional, cell-based.
The next test concerns NOMO-1. As to the kind of experiment: Antiproliferative activity against human NOMO-1 cells after 72 hrs by MTT assay. The class given is functional, cell-based. As to conditions: NOMO-1, 72 h.
The nature of test [3]: Antiproliferative activity against human MA9.3RAS cells after 72 hrs by MTT assay. The test is classed as functional, cell-based.
In another test the test system is U-87 MG. In words: Antiproliferative activity against human U-87 MG cells after 72 hrs by MTT assay. The class given is functional, cell-based, U-87MG ATCC.
The test system of another test is DG-75. In words: Antiproliferative activity against human DG-75 cells after 72 hrs by MTT assay. As to conditions: DG-75, 72 h. The class given is functional, cell-based.
In test [4] the test system is Kasumi 1. As to the kind of experiment: Inhibition of METTL16 in human Kasumi 1 cells at 10 to 20 nM assessed as increase in global m6A levels measured after 48 hrs. The conditions noted are these: dose 10-20 nM. The test is classed as cell-based.
The next test concerns HL-60. In words: Antiproliferative activity against human HL-60 cells after 72 hrs by MTT assay. As to conditions: HL-60, 72 h. The test is classed as functional, cell-based.
For the next test, the system named is MONO-MAC-6. In words: Antiproliferative activity against human MONO-MAC-6 cells after 72 hrs by MTT assay. The test is classed as functional, cell-based. As to conditions: MONO-MAC-6, 72 h.
For a further test, the system named is HeLa. As to the kind of experiment: Antiproliferative activity against human HeLa cells after 72 hrs by MTT assay. The class given is functional, cell-based.
For the next test, the system named is HEL. As to the kind of experiment: Antiproliferative activity against human HEL cells after 72 hrs by MTT assay. The class given is functional, cell-based.
The next test has as its system T98G. In words: Antiproliferative activity against human T98G cells after 72 hrs by MTT assay. The test is classed as functional, cell-based.
A further test concerns RS4-11. In words: Antiproliferative activity against human RS4-11 cells after 72 hrs by MTT assay. As to conditions: RS4-11, 72 h. The class given is functional, cell-based.
The subject of test [5] is Kasumi 1. In words: Antiproliferative activity against human Kasumi 1 cells after 72 hrs by MTT assay. The class given is functional, cell-based. As to conditions: Kasumi 1, 72 h.
The subject of a further test is SUP-B15. As to the kind of experiment: Antiproliferative activity against human SUP-B15 cells after 72 hrs by MTT assay. The class given is functional, cell-based. The conditions noted are these: SUP-B15, 72 h.
Test [6] deals with U-937. In words: Binding affinity towards METTL16 in human U-937 cells at 0.1 to 500 uM and measured by drug affinity responsive target stability (DARTS) assay. The class given is cell-based. The conditions noted are these: dose 0.1-500 µM.
For a further test, the system named is MA9.3RAS. In words: Inhibition of METTL16 in human MA9.3RAS cells at 10 to 20 nM assessed as increase in global m6A levels measured after 48 hrs. The test is classed as cell-based. The conditions noted are these: dose 10-20 nM.
The subject of a further test is COLO357. In words: Antiproliferative activity against human COLO357 cells after 72 hrs by MTT assay. The class given is functional, cell-based. The conditions noted are these: COLO357, 72 h.
The test system of test [7] is U-937. As to the kind of experiment: Binding affinity towards METTL16 in human U-937 cells at 0.1 to 500 uM and measured by cellular thermal shift assay (CETSA). The class given is cell-based. The conditions noted are these: dose 0.1-500 µM.
The subject of another test is LN-229. In words: Antiproliferative activity against human LN-229 cells after 72 hrs by MTT assay. As to conditions: LN-229, 72 h. The class given is functional, cell-based.
For the next test, the system named is CA46. As to the kind of experiment: Antiproliferative activity against human CA46 cells after 72 hrs by MTT assay. The class given is functional, cell-based. As to conditions: CA46, 72 h.
Another test deals with A 172. As to the kind of experiment: Antiproliferative activity against human A-172 cells after 72 hrs by MTT assay. The test is classed as functional, cell-based. As to conditions: A 172, 72 h.
The test system of test [8] is U-937. In words: Inhibition of METTL16 in human U-937 cells at 10 to 20 nM assessed as increase in global m6A levels measured after 48 hrs. The class given is cell-based. The conditions noted are these: dose 10-20 nM.

pIC50: −log10 of the molar value. Activity calls are given as the source filed them. The calls are words filed in the database; no cut-off is given here.

A word on the pIC50: it is the negative decadic logarithm of the IC50, by convention in mol/L. Take `Nc1ccc(CO)c(Cn2ccc3c4c(N)nc(N)nc4ccc32)c1`: the pIC50 with U-937 [1] is 7.44; in [2], 7.27; with NOMO-1, 7.26; in [3] it was 7.15.

Regarding `Nc1ccc(Cn2ccc3c4c(N)nc(N)nc4ccc32)cc1`, the pIC50 in the test with U-87 MG is 4.68; in the test on DG-75 it was 7.36; in the test on HL-60, 7.49; with MONO-MAC-6, 7.55; in the test on U-937 [1] it was 8.02; in the test on HeLa it was 7.19. Besides, the pIC50 in the test on HEL was 7.81; in the test on T98G, 4.96; in [2], 7.81; in the test on RS4-11 it was 7.43; in the test with Kasumi 1 [5] it was 7.88; in the test on SUP-B15, 7.89. Also, the pIC50 with COLO357 was 5.99; in the test on LN-229 it was 6.25; with CA46, 6.96; in [3], 7.79; with A 172 it was 6.17. For the same compound, the inhibition entry in the test with Kasumi 1 [4], with MA9.3RAS and in the test on U-937 [8] was “Active” in each case. Further, the outcome with U-937 [6] and in the test with U-937 [7] was Active.

As for `Nc1ccc(Cn2ccc3c4c(N)nc(N)nc4ccc32)c(CO)c1`, the values for the pIC50 (in the test with U-937 [1]; in [2]; in test [3]) were 7.64, 7.33 and 7.35, respectively.
